For one data set, the target named is T1, BCRP (Homo sapiens, UniProt Q9UNQ0).
T1 construct: host or cells: LLC-PK1 (porcine kidney cells)
T1 sequence (Q9UNQ0 1-655): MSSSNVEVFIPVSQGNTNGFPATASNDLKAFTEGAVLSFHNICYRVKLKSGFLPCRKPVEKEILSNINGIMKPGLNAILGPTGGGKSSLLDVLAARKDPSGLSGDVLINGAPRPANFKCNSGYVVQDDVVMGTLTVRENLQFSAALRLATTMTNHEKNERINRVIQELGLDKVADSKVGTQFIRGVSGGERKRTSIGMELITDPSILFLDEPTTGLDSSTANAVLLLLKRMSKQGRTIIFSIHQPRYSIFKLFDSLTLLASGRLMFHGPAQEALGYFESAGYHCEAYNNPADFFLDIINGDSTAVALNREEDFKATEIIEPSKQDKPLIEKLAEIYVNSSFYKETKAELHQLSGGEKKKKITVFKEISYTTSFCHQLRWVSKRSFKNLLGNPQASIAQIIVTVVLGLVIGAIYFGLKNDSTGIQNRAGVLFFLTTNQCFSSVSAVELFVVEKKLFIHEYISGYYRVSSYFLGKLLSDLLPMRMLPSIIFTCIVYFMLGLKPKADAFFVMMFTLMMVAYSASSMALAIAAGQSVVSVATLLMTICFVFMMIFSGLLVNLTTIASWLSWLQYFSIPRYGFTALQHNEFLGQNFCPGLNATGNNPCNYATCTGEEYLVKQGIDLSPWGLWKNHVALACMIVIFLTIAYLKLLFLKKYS
Put plainly: Permeability in LLC-PK1-BCRP cells. In kind it is in vitro ADME. The note with it: for Substrate: BCRP. How it is done: LLC-PK1-P-gp or BCRP cells were seeded on collagen-coated 24-transwell membranes at a density of 2.5 × 10^5 cells/mL and maintained at 37 °C in a humidified atmosphere with 5% CO2/95% air for 5 days in Medium 199 supplemented with 10% […], 50 μg/mL of gentamycin, and 50 μg/mL of hygromycin. The culture medium was replaced every other day. On the day of the experiment, the growth medium was discarded, and the attached cells were washed with prewarmed HBSS (pH 7.4) and preincubated with HBSS for 20 min at 37 °C. […] Aliquots (0.1 mL) in the apical side were transferred to clean tubes every 15 min for 1 h and replaced with an equal volume of fresh HBSS.
LLC-PK1-P-gp or BCRP cells were seeded on collagen-coated 24-transwell membranes at a density of 2.5 × 10^5 cells/mL and cultured for 5 days. The growth medium was discarded on the day of the experiment, and the attached cells were washed with prewarmed HBSS (pH 7.4) and preincubated with HBSS for 20 min at 37 °C. […] Aliquots (0.1 mL) in the apical side were transferred to clean tubes every 15 min for 1 h and replaced with an equal volume of fresh HBSS. Aliquots (30 μL) of each sample were vortex-mixed with 90 μL of IS solution for 1 min, and then centrifugation was performed at 13,500 rpm at 4 °C for 5 min. Aliquots (5 μL) of the supernatant were injected into the LC-MS/MS for analysis.
The permeability (Papp) was calculated from the following equation [23, 24]: Papp(cm/s)=transport ratenmol/s/JP−1366 or M1 concentration (μM)×surface area of membrane (cm^2)

The target in a further data set is T2, OAT1 (Homo sapiens, UniProt Q4U2R8).
T2 sequence (Q4U2R8 1-563): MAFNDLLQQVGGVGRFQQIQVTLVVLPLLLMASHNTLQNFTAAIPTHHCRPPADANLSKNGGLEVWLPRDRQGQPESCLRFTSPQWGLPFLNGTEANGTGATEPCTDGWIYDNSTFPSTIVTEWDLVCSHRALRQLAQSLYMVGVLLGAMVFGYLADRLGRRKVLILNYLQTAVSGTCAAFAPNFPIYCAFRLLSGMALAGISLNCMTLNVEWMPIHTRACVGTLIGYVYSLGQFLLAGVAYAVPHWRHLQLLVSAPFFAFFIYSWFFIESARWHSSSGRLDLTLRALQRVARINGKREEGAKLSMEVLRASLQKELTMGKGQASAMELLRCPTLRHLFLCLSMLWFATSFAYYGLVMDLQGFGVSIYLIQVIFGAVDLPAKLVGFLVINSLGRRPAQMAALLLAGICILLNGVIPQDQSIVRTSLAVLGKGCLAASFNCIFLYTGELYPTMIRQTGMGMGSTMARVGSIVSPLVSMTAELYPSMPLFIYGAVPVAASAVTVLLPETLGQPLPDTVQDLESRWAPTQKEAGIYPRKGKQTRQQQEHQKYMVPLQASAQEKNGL
As to the kind of experiment: Uptake into HEK293 cells expressing OAT1. The following applies: for Uptake Rate / Fold-Change: 6 μM; for Substrate: OAT1; for Fold-Change: vs HEK293-mock.

The next data set deals with T3, OAT3 (Homo sapiens, UniProt Q8TCC7).
T3 sequence (Q8TCC7 1-542): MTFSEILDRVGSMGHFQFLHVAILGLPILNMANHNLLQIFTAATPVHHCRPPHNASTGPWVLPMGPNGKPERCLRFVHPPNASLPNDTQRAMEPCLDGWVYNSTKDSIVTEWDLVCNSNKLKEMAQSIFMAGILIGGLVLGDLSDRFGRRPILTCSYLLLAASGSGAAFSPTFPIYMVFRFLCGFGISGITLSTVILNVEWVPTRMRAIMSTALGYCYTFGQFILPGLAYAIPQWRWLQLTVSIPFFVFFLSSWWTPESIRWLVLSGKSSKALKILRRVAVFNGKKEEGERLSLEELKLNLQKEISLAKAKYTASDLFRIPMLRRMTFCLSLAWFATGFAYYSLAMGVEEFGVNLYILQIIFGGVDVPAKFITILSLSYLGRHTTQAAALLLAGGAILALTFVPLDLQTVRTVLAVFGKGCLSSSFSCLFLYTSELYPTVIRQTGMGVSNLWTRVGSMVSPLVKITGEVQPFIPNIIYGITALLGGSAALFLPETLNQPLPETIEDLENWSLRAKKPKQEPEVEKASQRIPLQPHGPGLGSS
As to the kind of experiment: Uptake into HEK293 cells expressing OAT3. The note with it: for Uptake Rate / Fold-Change: 6 μM; for Substrate: OAT3; for Fold-Change: vs HEK293-mock.

[1] abbreviates: pig, pH 7.4, with Ko134 1 μM, LLC-PK1-BCRP, Ko134 1 μM.
The mark [2] stands for this setting: pig, pH 7.4, LLC-PK1-BCRP, Control.

The structures appear in SMILES notation.

As for `Cc1cccc(C)c1CNc1cc(C(=O)N2CCC2)cn2c(C)c(C)nc12` [JP-1366, 1-azetidinyl(8-(((2,6-dimethylphenyl)methyl)amino)-2,3-dimethylimidazo(1,2-a)pyridin-6-yl)methanone], the Substrate result on BCRP, at OAT1 and on OAT3 was “No” in each case. Moreover, the Papp A→B – broadly, the apparent permeability from the apical to the basolateral side of a cell layer – at 1 h, 4 µM at BCRP (setting [1]) amounted to 13.6 ± 0.54 ×10⁻⁶ cm/s; on BCRP (setting [2]), 14.8 ± 1.23 ×10⁻⁶ cm/s. The Papp B→A (as a rule, the apparent permeability from the basolateral to the apical side of a cell layer) at 1 h, 4 µM worked out at 22.6 ± 0.47 ×10⁻⁶ cm/s at BCRP (setting [1]) and 20.5 ± 3.95 ×10⁻⁶ cm/s at BCRP (setting [2]). The “Uptake Rate” value at OAT1 (HEK293-OAT1, control) worked out at 68.04 ± 2.96 pmol/min/10^5 Cells; on OAT1 (HEK293-OAT1, probenecid 20 μM), 61.04 ± 5.29 pmol/min/10^5 Cells; on OAT3 (HEK293-OAT3, control) it was 58.53 ± 3.71 pmol/min/10^5 Cells; on OAT3 (HEK293-OAT3, probenecid 20 μM), 52.47 ± 2.27 pmol/min/10^5 Cells.
As for `Cc1cccc(CO)c1CNc1cc(C(=O)N2CCC2)cn2c(C)c(C)nc12` [M1, azetidin-1-yl(8-((2-(hydroxymethyl)-6-methyl-benzyl)amino)-2,3-dimethylimidazo[1,2-a]pyridin-6-yl)methanone], the Substrate result at BCRP, at OAT1 and at OAT3 was “No” throughout. Also, the Papp A→B at 1 h, 4 µM on BCRP (setting [1]) amounted to 32 ± 2.84 ×10⁻⁶ cm/s; on BCRP (setting [2]) it was 31.7 ± 3.39 ×10⁻⁶ cm/s. In addition, the Papp B→A at 1 h, 4 µM on BCRP (setting [1]) was found to be 47.3 ± 1.39 ×10⁻⁶ cm/s; at BCRP (setting [2]) it was 33.8 ± 3.45 ×10⁻⁶ cm/s. In addition, the efflux ratio at 1 h at BCRP (pig, pH 7.4, LLC-PK1-BCRP, concentration range of 0.3–85 μM, read-out: ER) is 1.1 to 1.7. In addition, the “Uptake Rate” value at OAT1 (HEK293-OAT1, control) stood at 68.04 ± 2.96 pmol/min/10^5 Cells; on OAT1 (HEK293-OAT1, probenecid 20 μM) it was 61.04 ± 5.29 pmol/min/10^5 Cells; on OAT3 (HEK293-OAT3, control), 58.53 ± 3.71 pmol/min/10^5 Cells; on OAT3 (HEK293-OAT3, probenecid 20 μM), 52.47 ± 2.27 pmol/min/10^5 Cells. Further, the Fold-Change at OAT1 (HEK293-OAT1, control) stood at 1.3; on OAT1 (HEK293-OAT1, probenecid 20 μM), 1.2; on OAT3 (HEK293-OAT3, control), 1.1; on OAT3 (HEK293-OAT3, probenecid 20 μM) it was 1.0.

The values are drawn from paper PMC11207335, “In Vitro Metabolism and Transport Characteristics of Zastaprazan” (Pharmaceutics, 2024).
